Data taken from the Kinase Knowledgebase extract (Sharma et al. 2016).

Biological target: MAPK14 (human) (UniProt Q16539)
Assay: Assessment of MAPK14 Kinase Activity

MAPK14 (human), sequence (Q16539 whole entry, looked up): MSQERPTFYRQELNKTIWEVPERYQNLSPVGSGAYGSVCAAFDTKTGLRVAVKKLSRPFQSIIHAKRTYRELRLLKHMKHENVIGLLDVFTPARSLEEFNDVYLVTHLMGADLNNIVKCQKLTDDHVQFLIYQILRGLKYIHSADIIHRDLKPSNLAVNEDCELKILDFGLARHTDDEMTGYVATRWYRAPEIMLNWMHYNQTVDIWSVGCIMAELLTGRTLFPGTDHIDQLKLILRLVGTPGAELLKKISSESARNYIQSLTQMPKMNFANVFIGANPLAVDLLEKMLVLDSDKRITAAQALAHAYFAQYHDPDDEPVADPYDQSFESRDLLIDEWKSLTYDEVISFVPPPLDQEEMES

| Structure (SMILES) | IC50 |
| --- | --- |
| CCOC(=O)c1sc2c(ccc(=O)n2-c2ccccc2)c1CCc1ccccc1 | ≤ 1 µM |
| CCOC(=O)c1sc2c(ccc(=O)n2-c2ccccc2)c1C(O)c1cccc(C)c1 (centres undefined) | ≤ 1 µM |
| CCOC(=O)c1sc2c(ccc(=O)n2CC2CC2)c1C(O)c1ccccc1 (centres undefined) | ≤ 1 µM |
| CCOC(=O)c1sc2c(ccc(=O)n2-c2ccccc2)c1NC(=O)c1ccccc1 | ≤ 1 µM |
| CCOC(=O)c1sc2c(ccc(=O)n2-c2ccccc2)c1NCc1c(F)cccc1F | ≤ 1 µM |
| CCOC(=O)c1sc2c(ccc(=O)n2-c2ccccc2)c1Sc1ccccc1 | ≤ 1 µM |
| CCOC(=O)c1sc2c(ccc(=O)n2-c2ccccc2)c1NC(C)c1ccccc1 (centres undefined) | ≤ 1 µM |
| CCOC(=O)c1sc2c(ccc(=O)n2-c2ccccc2)c1NCc1ccccc1 | ≤ 1 µM |
| NC(=O)c1sc2c(ccc(=O)n2-c2ccccc2)c1Sc1ccccc1 | ≤ 1 µM |
| N#Cc1sc2c(ccc(=O)n2-c2ccccc2)c1C(O)c1ccccc1 (centres undefined) | ≤ 1 µM |
| CCOC(=O)c1sc2c(ccc(=O)n2-c2ccccc2)c1NS(=O)(=O)c1ccccc1 | ≤ 1 µM |
| CCOC(=O)c1sc2c(ccc(=O)n2-c2ccccc2)c1NCc1ccccn1 | ≤ 1 µM |
| CCOC(=O)c1sc2c(ccc(=O)n2-c2ccccc2)c1NNc1ccc(C)cc1 | ≤ 1 µM |
| CCOC(=O)c1sc2c(ccc(=O)n2-c2ccccc2)c1C(O)c1cccc(Cl)c1 (centres undefined) | ≤ 1 µM |
| CCOC(=O)c1sc2c(ccc(=O)n2-c2ccccc2)c1C(O)c1ccccc1 (centres undefined) | ≤ 1 µM |
| CCOC(=O)c1sc2c(ccc(=O)n2-c2ccccc2)c1NC(=O)c1ccc(N)cc1 | ≤ 1 µM |
| CCOC(=O)c1sc2c(ccc(=O)n2-c2ccccc2)c1Oc1ccccc1 | ≤ 1 µM |
| Cc1cccc(C(O)c2c(C#N)sc3c2ccc(=O)n3-c2ccccc2)c1 (centres undefined) | ≤ 1 µM |
| CCOC(=O)c1sc2c(ccc(=O)n2-c2ccccc2)c1Cc1ccccc1 | ≤ 1 µM |
| CCOC(=O)c1sc2c(ccc(=O)n2-c2ccccc2)c1C(O)c1cccc(C)n1 (centres undefined) | ≤ 1 µM |
| CCOC(=O)c1sc2c(ccc(=O)n2-c2ccccc2)c1S(=O)(=O)Nc1ccccc1 | ≤ 1 µM |
| CCOC(=O)c1sc2c(ccc(=O)n2-c2ccccc2)c1N(C)Cc1ccccc1 | ≤ 1 µM |
| N#Cc1sc2c(ccc(=O)n2-c2ccccc2)c1NCc1ccccc1 | ≤ 1 µM |
| CCOC(=O)c1sc2c(ccc(=O)n2-c2ccccc2)c1Sc1cccc(C)c1 | ≤ 1 µM |
